In ChEMBL document CHEMBL3132846 (Medchemcomm, 2014):
pIC50: −log10 of the molar value. Active and inactive are the calls of the source. The rule behind the calls is not given here.

Legend:
[1] = test system: SiHa; test: Cytotoxicity against human SiHa cells after 48 hrs by MTT assay; assay type: functional, cell-based
[2] = test system: BeWo; test: Cytotoxicity against human Bewo cells after 48 hrs by MTT assay; assay type: functional, cell-based
[3] = test system: HeLa; test: Cytotoxicity against human HeLa cells after 48 hrs by MTT assay; assay type: functional, cell-based
[4] = test system: HL-60; test: Cytotoxicity against human HL60 cells after 48 hrs by MTT assay; assay type: functional, cell-based; conditions: HL-60, 48 h
[5] = test system: MCF7; test: Cytotoxicity against human MCF7 cells after 48 hrs by MTT assay; assay type: functional, cell-based; conditions: MCF7, 48 h
[6] = test system: Ishikawa; test: Cytotoxicity against human Ishikawa cells after 48 hrs by MTT assay; assay type: functional, cell-based
[7] = test system: A549; test: Cytotoxicity against human A549 cells after 48 hrs by MTT assay; assay type: functional, cell-based; conditions: A549, 48 h
[8] = test system: CCRF S-180; test: Antitumor activity against mouse S180 cells allografted in ICR mouse assessed as tumor growth inhibition at 200 mg/kg, ig qd administered for 6 days relative to vehicle-treated control; assay type: functional; conditions: CCRF S-180, po, 144 h, route intragastric, read-out: TGI
[9] = test system: Mus musculus; test: Toxicity in ICR mouse allografted with mouse S180 cells assessed as body weight loss at 200 mg/kg, ig qd administered for 6 days relative to vehicle-treated control; assay type: organism-based, CCRF S-180; set-up: dose 200 mg/kg, route intragastric; conditions: in vivo, po, 144 h
[10] = Cytotoxicity against human Bel7402 cells after 48 hrs by MTT assay; assay type: functional, cell-based; conditions: Bel-7402, 48 h
[11] = Cytotoxicity against human BGC823 cells after 48 hrs by MTT assay; assay type: functional, cell-based; conditions: BGC-823, 48 h
[12] = Cytotoxicity against human NCI-460 cells after 48 hrs by MTT assay; assay type: functional, cell-based; conditions: NCI-460, 48 h
[13] = Cytotoxicity against human JeKo1 cells after 48 hrs by MTT assay; assay type: functional, cell-based; conditions: JeKo-1, 48 h
[14] = Cytotoxicity against human SKBR3 cells after 48 hrs by MTT assay; assay type: functional, cell-based; conditions: SK-BR-3, 48 h
[15] = test system: HUVEC; test: Cytotoxicity against HUVEC assessed as mitochondrial metabolism after 48 hrs by MTT assay; assay type: cell-based, Homo sapiens; conditions: for pIC50: Homo sapiens, HUVEC; for Activity: human, huvec
[16] = test system: HUVEC; test: Antiangiogenic activity against HUVEC assessed as inhibition of cell migration at 10 ug/ml after 24 hrs by wound healing assay relative to control; assay type: functional; conditions: Homo sapiens
[17] = test system: HUVEC; test: Antiangiogenic activity against HUVEC assessed as inhibition of tube formation at 12.5 ug/ml after 24 hrs relative to control; assay type: functional, cell-based; conditions: Homo sapiens
[18] = test system: HUVEC; test: Antiangiogenic activity against HUVEC assessed as inhibition of cell migration at 2.5 ug/ml after 24 hrs by wound healing assay relative to control; assay type: functional; conditions: Homo sapiens
[19] = test system: CCRF S-180; test: Antitumor activity against mouse S180 cells allografted in ICR mouse assessed as tumor growth inhibition at 30 mg/kg, ig qd administered for 6 days relative to vehicle-treated control; assay type: functional; conditions: CCRF S-180, po, 144 h, route intragastric, read-out: TGI

SMILES | pIC50 [1] | pIC50 [2] | pIC50 [3] | pIC50 [4] | pIC50 [5] | pIC50 [6] | pIC50 [7] | inhibition in vivo at 200 mg/kg [8] [%] | Activity [9] [%] | pIC50 [10] | pIC50 [11] | pIC50 [12] | IC50 [13] [µg/mL] | IC50 [14] [µg/mL] | pIC50 [15] | Activity [15] | inhibition at 10 µg/mL [16] [%] | Activity [17] | inhibition at 2.5 µg/mL [18] [%] | inhibition in vivo at 30 mg/kg [19] [%]
Cc1ccc2c(=O)c3cccc(CC(=O)Nc4ccc([N+](=O)[O-])c(C(F)(F)F)c4)c3oc2c1C | 4.20 | < 4.00 | < 4.00 | 4.03 | < 4.00 | < 4.00 | < 4.00 |  |  |  |  |  |  |  |  |  |  |  |  | 
CCOC(=O)Cc1cccc2c(=O)c3ccc(C)c(C)c3oc12 |  |  |  |  |  |  |  | 4.04 | 8.5 |  |  |  |  |  |  |  |  |  |  | 
COc1c(O)ccc(/C=N/NC(=O)Cc2cccc3c(=O)c4ccc(C)c(C)c4oc23)c1[N+](=O)[O-] |  |  |  |  |  |  | < 4.00 |  |  |  |  |  |  |  |  |  |  |  |  | 
Cc1ccc2c(=O)c3cccc(CC(=O)N/N=C/c4ccc(O)c(O)c4)c3oc2c1C |  |  |  |  |  |  | < 4.00 |  |  |  |  |  |  |  |  |  |  |  |  | 
COc1ccc(/C=N/NC(=O)Cc2cccc3c(=O)c4ccc(C)c(C)c4oc23)cc1O | < 4.00 | < 4.00 | < 4.00 | < 4.00 | < 4.00 | < 4.00 | 4.26 |  |  | < 4.00 | < 4.00 | < 4.00 |  |  |  |  |  |  |  | 
Cc1ccc2c(=O)c3cccc(CC(=O)N/N=C/c4ccc(O)cc4)c3oc2c1C | < 4.00 | 4.13 | < 4.00 | < 4.00 | < 4.00 | < 4.00 | 4.44 |  |  |  |  |  |  |  |  |  |  |  |  | 
Cc1ccc2c(=O)c3cccc(CC(=O)Nc4ccc(F)c(Cl)c4)c3oc2c1C | 4.49 | < 4.00 | 4.03 | 4.12 | < 4.00 | < 4.00 | 4.59 |  |  |  |  |  |  |  |  |  |  |  |  | 
CCC/C=C/C(=O)NNC(=O)Cc1cccc2c(=O)c3ccc(C)c(C)c3oc12 |  |  |  |  |  |  |  |  |  |  |  |  | > 10 | > 10 |  |  |  |  |  | 
Cc1ccc2c(=O)c3cccc(CC(=O)Nc4ccc(Cl)cn4)c3oc2c1C | < 4.00 | < 4.00 | < 4.00 | 4.09 | 4.02 | < 4.00 | < 4.00 |  |  |  |  |  |  |  |  |  |  |  |  | 
Cc1ccc2c(=O)c3cccc(CC(=O)N/N=C/c4ccc5c(c4)OCO5)c3oc2c1C | < 4.00 | < 4.00 | < 4.00 | < 4.00 | < 4.00 | < 4.00 | 4.06 |  |  | < 4.00 | < 4.00 | < 4.00 |  |  |  |  |  |  |  | 
CC(C)=CCC(=O)NNC(=O)Cc1cccc2c(=O)c3ccc(C)c(C)c3oc12 |  |  |  |  |  |  |  |  |  |  |  |  | > 10 | > 10 |  |  |  |  |  | 
Cc1ccc2c(=O)c3cccc(CC(=O)Nc4ccccc4)c3oc2c1C | < 4.00 | < 4.00 | < 4.00 | 5.34 | < 4.00 | < 4.00 | 4.11 | 18.4 | 10.2 | < 4.00 | < 4.00 | < 4.00 |  |  | < 4.70 |  |  |  |  | 
CCCNC(=O)Cc1cccc2c(=O)c3ccc(C)c(C)c3oc12 | 4.04 | < 4.00 | < 4.00 | < 4.00 | < 4.00 | < 4.00 | 4.54 | 25.6 | 10.32 | < 4.00 | < 4.00 | < 4.00 |  |  |  |  |  |  |  | 
C/C=C/CC(=O)NNC(=O)Cc1cccc2c(=O)c3ccc(C)c(C)c3oc12 |  |  |  |  |  |  |  |  |  |  |  |  | > 10 | > 10 |  |  |  |  |  | 
CCOC(=O)c1ccc(NC(=O)Cc2cccc3c(=O)c4ccc(C)c(C)c4oc23)cc1 | < 4.00 | 4.34 | < 4.00 | 4.04 | < 4.00 | < 4.00 | 4.40 |  |  | < 4.00 | < 4.00 | < 4.00 |  |  |  |  |  |  |  | 
COc1cccc(/C=N/NC(=O)Cc2cccc3c(=O)c4ccc(C)c(C)c4oc23)c1 | < 4.00 | 4.07 | < 4.00 | < 4.00 | < 4.00 | < 4.00 | 4.29 |  |  | < 4.00 | < 4.00 | < 4.00 |  |  |  |  |  |  |  | 

SMILES | pIC50 [1] | pIC50 [2] | pIC50 [3] | pIC50 [4] | pIC50 [5] | pIC50 [6] | pIC50 [7] | inhibition in vivo at 200 mg/kg [8] [%] | Activity [9] [%] | pIC50 [10] | pIC50 [11] | pIC50 [12] | IC50 [13] [µg/mL] | IC50 [14] [µg/mL] | pIC50 [15] | Activity [15] | inhibition at 10 µg/mL [16] [%] | Activity [17] | inhibition at 2.5 µg/mL [18] [%] | inhibition in vivo at 30 mg/kg [19] [%]
Cc1ccc2c(=O)c3cccc(CC(=O)Nc4ccc(Cl)cc4)c3oc2c1C | 4.33 | 4.49 | < 4.00 | 4.17 | < 4.00 | < 4.00 | 5.03 | 27.8 | 12.37 |  |  |  |  |  | 5.16 | Dose-dependent effect | 65.8 | Active | 45.6 | 
CCOC(=O)CCNC(=O)Cc1cccc2c(=O)c3ccc(C)c(C)c3oc12 | 4.01 | 4.58 | < 4.00 | 4.10 | 4.39 | < 4.00 | 4.46 |  |  | < 4.00 | 4.12 | < 4.00 |  |  |  |  |  |  |  | 
Cc1ccc2c(=O)c3cccc(CC(=O)Nc4cccc(Cl)c4)c3oc2c1C | 4.44 | 4.18 | 4.59 | 4.04 | < 4.00 | < 4.00 | 4.97 | 22.4 | 10.7 |  |  |  |  |  | 4.95 | Dose-dependent effect | 58.2 |  | 32.6 | 
Cc1ccc2c(=O)c3cccc(CC(=O)N/N=C/c4cc(Cl)ccc4O)c3oc2c1C | < 4.00 | 4.12 | 4.44 | 4.68 | < 4.00 | 4.16 | 4.94 |  |  | < 4.00 | < 4.00 | < 4.00 | > 10 | > 10 | < 4.70 |  |  |  |  | 
CCCCNC(=O)Cc1cccc2c(=O)c3ccc(C)c(C)c3oc12 | < 4.00 | < 4.00 | < 4.00 | 4.35 | 4.36 | < 4.00 | 4.33 |  |  |  |  |  |  |  |  |  |  |  |  | 
COc1ccc(/C=N/NC(=O)Cc2cccc3c(=O)c4ccc(C)c(C)c4oc23)cc1 | < 4.00 | < 4.00 | < 4.00 | < 4.00 | < 4.00 | 4.04 | < 4.00 |  |  |  |  |  |  |  |  |  |  |  |  | 
CCCCCC(=O)NNC(=O)Cc1cccc2c(=O)c3ccc(C)c(C)c3oc12 |  |  |  |  |  |  |  |  |  |  |  |  | > 10 | > 10 |  |  |  |  |  | 
Cc1ccc2c(=O)c3cccc(CC(=O)Nc4ccc(Cl)c(Cl)c4)c3oc2c1C | 4.02 | < 4.00 | 4.73 | 4.37 | < 4.00 | < 4.00 | 4.04 | 29.6 | 12.87 |  |  |  |  |  | 5.19 | Dose-dependent effect | 89.7 | Active | 67.6 | 
Cc1ccc2c(=O)c3cccc(CC(=O)O)c3oc2c1C [VADIMEZAN] | < 4.00 | < 4.00 | < 4.00 | < 4.00 | < 4.00 | < 4.00 | < 4.00 |  |  | < 4.00 | < 4.00 | < 4.00 |  |  | < 4.70 |  |  |  |  | 76.2
C#CCOC(=O)Cc1cccc2c(=O)c3ccc(C)c(C)c3oc12 | < 4.00 | < 4.00 | < 4.00 | < 4.00 | < 4.00 | < 4.00 | < 4.00 |  |  | < 4.00 | 4.09 | < 4.00 | > 10 | > 10 |  |  |  |  |  | 
CCOC(=O)CNC(=O)Cc1cccc2c(=O)c3ccc(C)c(C)c3oc12 | < 4.00 | < 4.00 | < 4.00 | < 4.00 | 4.33 | 4.21 | 4.37 |  |  |  |  |  |  |  |  |  |  |  |  | 
Cc1ccc2c(=O)c3cccc(CC(=O)N/N=C/c4ccccc4O)c3oc2c1C | < 4.00 | 4.17 | < 4.00 | 4.28 | < 4.00 | < 4.00 | 4.67 |  |  | < 4.00 | < 4.00 | < 4.00 | > 10 | > 10 |  |  |  |  |  | 
COc1cc(/C=N/NC(=O)Cc2cccc3c(=O)c4ccc(C)c(C)c4oc23)ccc1O |  |  |  |  |  |  | < 4.00 |  |  |  |  |  |  |  |  |  |  |  |  | 
COc1ccc(/C=C\c2cc(OC)c(OC)c(OC)c2)cc1O [COMBRETASTATIN A4] | < 4.00 | 4.89 | 4.83 | > 7.52 | 4.59 | 4.70 |  |  |  |  |  |  |  |  |  |  |  |  |  | 
COc1cc(/C=N/NC(=O)Cc2cccc3c(=O)c4ccc(C)c(C)c4oc23)cc(OC)c1OC | < 4.00 | < 4.00 | < 4.00 | < 4.00 | < 4.00 | < 4.00 | 4.81 |  |  |  |  |  |  |  |  |  |  |  |  | 
